In this assay the target is Human immunodeficiency virus type 1 protease (Human immunodeficiency virus 1, UniProt Q72874). Description: Compound was tested for the inhibition of HIV-1 protease by assaying the cleavage of a fluorescent peptide using HPLC.

As a reminder, the Ki is the dissociation constant of the complex between target and ligand, obtained from inhibition or displacement. As to `O=C1N[C@H](Cc2ccccc2)[C@@H](O)[C@H](O)[C@]23CC[C@H](CC2)N13`, the inhibition constant (Ki) came to 21 µM.
The result for `O=C1N(Cc2ccc3[nH]ncc3c2)[C@H](Cc2ccccc2)[C@H](O)[C@H](O)[C@]23CC[C@H]([C@H](OCc4ccccc4)C2)N13` reads 0.009 µM; that for `O=C1N(Cc2ccccc2)[C@H](Cc2ccccc2)[C@H](O)[C@H](O)[C@]23CC[C@H](CC2)N13`, 2.4 µM.
With `O=C1N(Cc2ccccc2)[C@H](Cc2ccccc2)[C@H](O)[C@H](O)[C@]23CC[C@H]([C@H](OCc4ccccc4)C2)N13`, the affinity, expressed as Ki, was 0.75 µM.
The result for `O=C1N(Cc2ccccc2)[C@H](Cc2ccccc2)[C@@H](O)[C@H](O)[C@]23CC[C@H](CC2)N13` reads 6.3 µM; that for `O=C1N(Cc2ccc3[nH]ncc3c2)[C@H](Cc2ccccc2)[C@H](O)[C@H](O)[C@]23CC[C@H](CC2)N13`, 2.3 µM.

The values above are taken from ChEMBL document CHEMBL1130717, “Tricyclic ureas: a new class of HIV-1 protease inhibitors” (Bioorg Med Chem Lett, 1998).
